According to ChEMBL document CHEMBL5653631, “A Potent and Selective ULK1 Inhibitor Suppresses Autophagy and Sensitizes Cancer Cells to Nutrient Stress” (iScience, 2018):
Each block holds one compound with its values, some of them ahead of it.

What was measured:
[1] = target: T1, Phosphorylase b kinase gamma catalytic chain, liver/testis isoform (Homo sapiens) (UniProt P15735); assay: Inhibition of human recombinant PHKg2 at 500 nM in presence of ATP by radiometric assay relative to control
T1 sequence (whole entry): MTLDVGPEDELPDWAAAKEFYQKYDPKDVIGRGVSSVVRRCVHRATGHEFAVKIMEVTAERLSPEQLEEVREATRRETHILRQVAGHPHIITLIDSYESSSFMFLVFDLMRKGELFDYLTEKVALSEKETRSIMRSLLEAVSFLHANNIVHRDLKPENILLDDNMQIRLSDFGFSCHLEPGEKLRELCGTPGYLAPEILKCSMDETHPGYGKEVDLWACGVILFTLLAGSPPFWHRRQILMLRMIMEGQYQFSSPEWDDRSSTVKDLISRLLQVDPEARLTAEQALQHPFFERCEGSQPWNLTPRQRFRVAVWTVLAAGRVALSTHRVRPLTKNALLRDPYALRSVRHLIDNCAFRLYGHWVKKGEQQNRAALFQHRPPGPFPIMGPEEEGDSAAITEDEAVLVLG

[2] = target: Serine/threonine-protein kinase SIK3 (Homo sapiens) (UniProt Q9Y2K2); assay: Inhibition of human recombinant QSK at 500 nM related to control ULK1
Chain of Serine/threonine-protein kinase SIK3 (Homo sapiens) (Q9Y2K2 whole entry, looked up): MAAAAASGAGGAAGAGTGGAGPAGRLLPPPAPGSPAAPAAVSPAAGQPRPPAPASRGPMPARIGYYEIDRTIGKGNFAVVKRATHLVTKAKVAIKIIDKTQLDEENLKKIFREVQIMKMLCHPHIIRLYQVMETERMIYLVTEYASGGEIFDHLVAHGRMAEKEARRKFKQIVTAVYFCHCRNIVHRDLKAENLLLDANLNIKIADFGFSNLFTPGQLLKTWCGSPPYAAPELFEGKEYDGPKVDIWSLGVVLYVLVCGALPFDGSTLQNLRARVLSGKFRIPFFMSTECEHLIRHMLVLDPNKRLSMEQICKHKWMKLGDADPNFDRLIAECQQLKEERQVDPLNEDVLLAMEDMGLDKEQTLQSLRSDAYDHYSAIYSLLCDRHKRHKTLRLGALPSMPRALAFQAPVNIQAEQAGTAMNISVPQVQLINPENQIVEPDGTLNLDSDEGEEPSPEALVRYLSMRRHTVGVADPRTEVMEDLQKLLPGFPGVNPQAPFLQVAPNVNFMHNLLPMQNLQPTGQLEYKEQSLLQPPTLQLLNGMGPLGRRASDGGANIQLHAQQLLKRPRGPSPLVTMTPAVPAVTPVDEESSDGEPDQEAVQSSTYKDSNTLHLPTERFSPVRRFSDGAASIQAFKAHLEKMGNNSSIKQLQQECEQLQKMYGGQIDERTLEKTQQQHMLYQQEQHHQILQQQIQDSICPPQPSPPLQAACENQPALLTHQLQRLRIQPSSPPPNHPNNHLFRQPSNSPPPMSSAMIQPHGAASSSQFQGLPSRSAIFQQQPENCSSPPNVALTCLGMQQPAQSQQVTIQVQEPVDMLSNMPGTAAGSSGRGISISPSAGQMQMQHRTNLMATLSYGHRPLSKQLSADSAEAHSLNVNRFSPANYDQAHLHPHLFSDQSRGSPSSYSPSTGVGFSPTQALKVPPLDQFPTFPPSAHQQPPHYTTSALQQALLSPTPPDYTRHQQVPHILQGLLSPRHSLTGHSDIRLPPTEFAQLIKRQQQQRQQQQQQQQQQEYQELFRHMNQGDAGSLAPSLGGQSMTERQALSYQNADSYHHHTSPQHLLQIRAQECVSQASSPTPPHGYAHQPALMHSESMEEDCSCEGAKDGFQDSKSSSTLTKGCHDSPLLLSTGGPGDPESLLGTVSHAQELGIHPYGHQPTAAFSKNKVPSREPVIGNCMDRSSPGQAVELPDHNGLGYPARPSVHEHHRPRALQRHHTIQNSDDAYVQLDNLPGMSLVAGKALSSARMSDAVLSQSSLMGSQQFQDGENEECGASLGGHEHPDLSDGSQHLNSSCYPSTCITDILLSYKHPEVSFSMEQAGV

[3] = target: T2, Tyrosine-protein kinase JAK3 (Homo sapiens) (UniProt P52333); assay: Inhibition of human recombinant JAK3 at 40 nM in presence of ATP by radiometric assay relative to control
T2 sequence (whole entry): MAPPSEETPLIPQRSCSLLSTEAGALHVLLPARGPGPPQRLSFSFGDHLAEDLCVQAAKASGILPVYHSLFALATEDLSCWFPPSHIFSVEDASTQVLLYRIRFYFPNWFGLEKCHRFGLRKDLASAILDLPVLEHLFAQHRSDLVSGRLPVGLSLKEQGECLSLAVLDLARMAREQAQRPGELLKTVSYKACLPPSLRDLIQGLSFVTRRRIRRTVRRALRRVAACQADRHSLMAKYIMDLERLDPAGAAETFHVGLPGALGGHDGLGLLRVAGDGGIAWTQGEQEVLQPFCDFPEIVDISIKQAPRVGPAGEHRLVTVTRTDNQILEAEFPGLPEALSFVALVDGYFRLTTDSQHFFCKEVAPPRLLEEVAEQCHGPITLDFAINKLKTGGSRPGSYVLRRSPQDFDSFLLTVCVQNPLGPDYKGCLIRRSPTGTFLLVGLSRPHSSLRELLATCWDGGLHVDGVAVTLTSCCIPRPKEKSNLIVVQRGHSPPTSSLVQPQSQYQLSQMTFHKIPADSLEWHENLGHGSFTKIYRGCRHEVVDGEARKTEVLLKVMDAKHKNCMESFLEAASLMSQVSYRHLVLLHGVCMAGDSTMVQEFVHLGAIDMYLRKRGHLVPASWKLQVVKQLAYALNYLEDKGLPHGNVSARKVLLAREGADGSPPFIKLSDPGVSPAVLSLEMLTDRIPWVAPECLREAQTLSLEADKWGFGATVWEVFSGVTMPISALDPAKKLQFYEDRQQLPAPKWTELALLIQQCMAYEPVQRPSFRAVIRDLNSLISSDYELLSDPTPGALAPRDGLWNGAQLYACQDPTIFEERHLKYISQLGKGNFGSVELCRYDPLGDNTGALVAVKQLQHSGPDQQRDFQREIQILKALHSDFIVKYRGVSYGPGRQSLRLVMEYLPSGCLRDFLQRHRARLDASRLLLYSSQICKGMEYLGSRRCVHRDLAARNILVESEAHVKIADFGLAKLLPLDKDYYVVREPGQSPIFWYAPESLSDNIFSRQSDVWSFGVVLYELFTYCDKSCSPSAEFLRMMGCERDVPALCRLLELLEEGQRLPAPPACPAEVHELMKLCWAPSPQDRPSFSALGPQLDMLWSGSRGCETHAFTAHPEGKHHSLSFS

[4] = target: Platelet-derived growth factor receptor beta (Homo sapiens) (UniProt P09619); assay: Inhibition of human recombinant PDGFRb at 40 nM in presence of ATP by radiometric assay relative to control
[5] = target: Cyclin-dependent kinase 13 (Homo sapiens) (UniProt Q14004); assay: Inhibition of human recombinant CHED at 40 nM related to control ULK1
[6] = target: Leucine-rich repeat serine/threonine-protein kinase 2 (Homo sapiens) (UniProt Q5S007); assay: Inhibition of human recombinant LRRK2 at 40 nM related to control ULK1
Chain of Leucine-rich repeat serine/threonine-protein kinase 2 (Homo sapiens) (Q5S007 whole entry): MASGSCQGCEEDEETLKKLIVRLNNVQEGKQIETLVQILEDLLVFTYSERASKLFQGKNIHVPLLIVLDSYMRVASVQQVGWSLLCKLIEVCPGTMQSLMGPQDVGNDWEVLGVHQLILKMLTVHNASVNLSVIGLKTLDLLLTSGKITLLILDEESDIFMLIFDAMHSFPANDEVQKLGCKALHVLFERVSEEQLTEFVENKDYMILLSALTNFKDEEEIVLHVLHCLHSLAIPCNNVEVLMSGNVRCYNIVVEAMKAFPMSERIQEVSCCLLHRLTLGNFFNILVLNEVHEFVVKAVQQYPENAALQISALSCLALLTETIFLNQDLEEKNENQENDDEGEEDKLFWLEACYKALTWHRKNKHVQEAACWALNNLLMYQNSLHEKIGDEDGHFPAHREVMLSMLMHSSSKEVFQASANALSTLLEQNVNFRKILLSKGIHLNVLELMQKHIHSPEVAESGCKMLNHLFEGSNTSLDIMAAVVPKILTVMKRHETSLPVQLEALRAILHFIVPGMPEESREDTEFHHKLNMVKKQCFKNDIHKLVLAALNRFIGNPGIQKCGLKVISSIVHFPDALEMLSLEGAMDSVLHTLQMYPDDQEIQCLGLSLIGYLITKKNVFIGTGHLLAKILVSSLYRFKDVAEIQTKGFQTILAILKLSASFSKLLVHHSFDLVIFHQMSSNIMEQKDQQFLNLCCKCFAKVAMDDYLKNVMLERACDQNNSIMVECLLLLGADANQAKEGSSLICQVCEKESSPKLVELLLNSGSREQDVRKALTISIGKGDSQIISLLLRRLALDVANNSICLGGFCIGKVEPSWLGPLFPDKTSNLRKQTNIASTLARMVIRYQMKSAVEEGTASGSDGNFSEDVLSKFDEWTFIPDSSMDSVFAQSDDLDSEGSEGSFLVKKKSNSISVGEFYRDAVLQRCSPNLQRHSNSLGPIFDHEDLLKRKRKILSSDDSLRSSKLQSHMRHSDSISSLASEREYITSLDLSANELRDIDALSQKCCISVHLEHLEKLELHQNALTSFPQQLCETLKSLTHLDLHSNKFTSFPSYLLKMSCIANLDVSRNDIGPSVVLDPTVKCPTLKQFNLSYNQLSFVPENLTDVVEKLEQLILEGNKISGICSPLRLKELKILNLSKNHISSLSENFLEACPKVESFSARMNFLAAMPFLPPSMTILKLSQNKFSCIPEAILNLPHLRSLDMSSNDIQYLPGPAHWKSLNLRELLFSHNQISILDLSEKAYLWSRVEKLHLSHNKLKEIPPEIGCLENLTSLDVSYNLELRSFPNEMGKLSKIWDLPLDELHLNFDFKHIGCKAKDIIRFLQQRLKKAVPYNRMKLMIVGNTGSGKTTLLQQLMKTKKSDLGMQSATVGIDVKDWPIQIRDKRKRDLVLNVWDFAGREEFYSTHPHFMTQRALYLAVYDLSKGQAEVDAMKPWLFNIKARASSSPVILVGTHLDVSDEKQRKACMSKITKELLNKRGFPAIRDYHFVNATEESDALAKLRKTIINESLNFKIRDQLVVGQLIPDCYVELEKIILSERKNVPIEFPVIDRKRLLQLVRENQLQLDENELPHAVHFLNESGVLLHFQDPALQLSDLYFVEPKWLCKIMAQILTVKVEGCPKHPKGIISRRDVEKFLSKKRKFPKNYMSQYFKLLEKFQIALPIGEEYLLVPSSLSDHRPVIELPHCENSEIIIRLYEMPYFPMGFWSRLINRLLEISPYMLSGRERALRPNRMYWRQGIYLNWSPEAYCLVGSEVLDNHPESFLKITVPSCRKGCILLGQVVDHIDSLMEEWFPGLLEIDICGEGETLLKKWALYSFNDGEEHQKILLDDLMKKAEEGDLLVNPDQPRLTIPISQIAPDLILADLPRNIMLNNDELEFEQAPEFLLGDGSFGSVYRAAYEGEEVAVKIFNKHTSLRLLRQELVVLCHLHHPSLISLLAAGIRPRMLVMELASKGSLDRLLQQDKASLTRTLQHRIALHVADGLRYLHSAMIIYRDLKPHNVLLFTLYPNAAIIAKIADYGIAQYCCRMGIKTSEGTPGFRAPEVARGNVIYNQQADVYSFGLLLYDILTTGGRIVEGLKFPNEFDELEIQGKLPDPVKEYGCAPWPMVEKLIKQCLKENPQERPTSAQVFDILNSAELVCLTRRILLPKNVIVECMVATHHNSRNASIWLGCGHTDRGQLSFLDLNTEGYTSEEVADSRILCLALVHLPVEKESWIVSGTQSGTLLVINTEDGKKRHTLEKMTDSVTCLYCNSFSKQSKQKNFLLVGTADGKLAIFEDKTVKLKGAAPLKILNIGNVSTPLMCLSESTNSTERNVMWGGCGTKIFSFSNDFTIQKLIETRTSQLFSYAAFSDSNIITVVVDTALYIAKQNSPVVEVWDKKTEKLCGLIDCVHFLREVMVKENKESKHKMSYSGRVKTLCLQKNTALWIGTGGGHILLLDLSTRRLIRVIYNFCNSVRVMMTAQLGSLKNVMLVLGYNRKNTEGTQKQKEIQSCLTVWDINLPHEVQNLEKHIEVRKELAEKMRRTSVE

[7] = target: Receptor-interacting serine/threonine-protein kinase 2 (Homo sapiens) (UniProt O43353); assay: Inhibition of human recombinant RIPK2 at 40 nM related to control ULK1
[8] = target: T3, Homeodomain-interacting protein kinase 4 (Homo sapiens) (UniProt Q8NE63); assay: Inhibition of human recombinant HIPK4 at 15 nM in presence of ATP by radiometric assay relative to control
T3 sequence (whole entry): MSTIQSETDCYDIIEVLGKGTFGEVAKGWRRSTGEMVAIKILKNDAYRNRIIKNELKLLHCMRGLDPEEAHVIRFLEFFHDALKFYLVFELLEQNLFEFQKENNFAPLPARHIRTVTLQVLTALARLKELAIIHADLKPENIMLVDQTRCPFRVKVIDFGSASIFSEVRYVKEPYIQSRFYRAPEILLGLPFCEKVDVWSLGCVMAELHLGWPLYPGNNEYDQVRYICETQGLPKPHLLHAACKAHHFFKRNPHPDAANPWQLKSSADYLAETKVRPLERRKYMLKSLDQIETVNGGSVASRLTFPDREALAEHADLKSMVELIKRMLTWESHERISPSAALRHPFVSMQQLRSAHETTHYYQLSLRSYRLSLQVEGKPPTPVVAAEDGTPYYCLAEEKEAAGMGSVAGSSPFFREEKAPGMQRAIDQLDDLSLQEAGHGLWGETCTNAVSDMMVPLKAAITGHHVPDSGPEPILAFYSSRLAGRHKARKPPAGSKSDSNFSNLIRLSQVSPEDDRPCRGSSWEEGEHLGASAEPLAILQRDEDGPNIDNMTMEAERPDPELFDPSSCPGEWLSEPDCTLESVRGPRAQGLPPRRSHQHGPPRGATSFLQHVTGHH

[9] = target: Serine/threonine-protein kinase SBK1 (Homo sapiens) (UniProt Q52WX2); assay: Inhibition of human recombinant SBK1 at 15 nM in presence of ATP by radiometric assay relative to control
Chain of Serine/threonine-protein kinase SBK1 (Homo sapiens) (Q52WX2 whole entry): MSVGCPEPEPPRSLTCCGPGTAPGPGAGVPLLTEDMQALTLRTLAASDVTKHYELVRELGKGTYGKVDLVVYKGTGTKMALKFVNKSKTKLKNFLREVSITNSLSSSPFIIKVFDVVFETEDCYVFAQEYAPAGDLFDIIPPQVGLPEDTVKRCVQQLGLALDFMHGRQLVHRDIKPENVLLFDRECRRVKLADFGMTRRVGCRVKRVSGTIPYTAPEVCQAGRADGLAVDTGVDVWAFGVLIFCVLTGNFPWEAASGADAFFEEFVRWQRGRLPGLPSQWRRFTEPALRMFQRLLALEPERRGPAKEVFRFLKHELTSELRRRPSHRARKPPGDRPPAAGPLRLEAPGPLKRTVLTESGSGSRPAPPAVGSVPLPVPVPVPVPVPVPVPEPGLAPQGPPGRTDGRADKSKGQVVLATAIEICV

[10] = target: Mitogen-activated protein kinase 14 (Homo sapiens) (UniProt Q16539); assay: Inhibition of human recombinant p38alpha at 15 nM related to control ULK1
Chain of Mitogen-activated protein kinase 14 (Homo sapiens) (Q16539 whole entry): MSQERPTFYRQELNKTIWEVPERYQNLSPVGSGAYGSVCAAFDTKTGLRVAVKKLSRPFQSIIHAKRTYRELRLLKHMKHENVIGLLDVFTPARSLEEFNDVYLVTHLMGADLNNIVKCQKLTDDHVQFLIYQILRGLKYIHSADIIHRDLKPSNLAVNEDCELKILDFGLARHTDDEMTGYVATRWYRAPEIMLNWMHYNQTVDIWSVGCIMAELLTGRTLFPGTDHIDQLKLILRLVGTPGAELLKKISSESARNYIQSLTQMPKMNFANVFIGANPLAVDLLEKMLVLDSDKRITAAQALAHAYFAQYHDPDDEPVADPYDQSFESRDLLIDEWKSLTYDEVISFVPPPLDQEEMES

[11] = target: Serine/threonine-protein kinase pim-3 (Homo sapiens) (UniProt Q86V86); assay: Inhibition of human recombinant PIM3 at 15 nM related to control ULK1

inhibition [1]: 0%
fold change (FC) [2]: 0.11
SMILES: CNC(=O)c1ccccc1Oc1nc(Nc2cc(OC)c(OC)c(OC)c2)ncc1Br

inhibition [3]: 0%
inhibition [4]: 5%
fold change (FC) [5]: 0.05
fold change (FC) [6]: 0.04
fold change (FC) [7]: 0.41
SMILES: O=C(N[C@@H](C1CC1)C(F)(F)F)c1cc(-c2cnn3cc(-c4ccc(F)cc4)cnc23)cs1

inhibition [8]: 0%
inhibition [9]: 5%
fold change (FC) [10]: 0.06
fold change (FC) [11]: 0.02
SMILES: CC(C)[C@H](NC(=O)c1cc(-c2cnn3cc(-c4ccc(OCCN5CCCCC5)cc4)cnc23)cs1)C(F)(F)F
